{
  "source": "patent US20230165811A1",
  "about": "“METHOD FOR TREATING SYMPTOMS OF VIRAL INFECTIONS” (priority 2020, published 2023)",
  "system": "Murine RAW 264.7 macrophages",
  "assay": "LPS-induced TNF-α production in RAW 264.7 macrophages (ELISA)",
  "type": "cell-based",
  "settings": "1 μM compound for 1 h, then 1 μg/mL LPS, vs vehicle (DMSO), FIG. 1",
  "experimental": "Murine RAW 264.7 macrophages (ATCC TIB-71) were cultured in Dulbecco's Modified Eagle's Medium supplemented with fetal bovine serum (FBS) at a final concentration of 10%. The cells were maintained in T75 flasks in humidified atmosphere with 5% CO2 at 37° C. Subculturing was performed every 2-3 days with a cellscraper.\nRAW 264.7 macrophages were seeded onto 24-well plate in 1 mL of complete growth medium and left overnight to enable cell attachment. Next day the cells were washed with phosphate buffered saline and the medium was replaced with 0.5 mL of low serum medium containing 1% FBS. After 3 h of incubation, the medium was replaced with serum-free medium (0.5 mL) and incubated for 1.5 h. Then, the cells were exposed to 1 μM (R,R′)-4′-methoxy-1-naphthylfenoterol (MNF) or vehicle (DMSO) for 1 h followed by stimulation with 1 μg/mL lipopolysaccharide (LPS, E. coli 055: B5). Media were collected at the following timepoints after LPS administration: 0 h, 2 h, 4 h, 6 h, 8 h, and 10 h.\nTNF-α was measured in all collected media samples using Quantikine ELISA kit (MTA00B) from R&D Systems according to manufacturer's protocol.\nStatistical analysis Obtained data were assessed and plotted using GraphPad Prism 8.4.2. Two-way analysis of variance (ANOVA) followed by Sidak post-hoc test was used to compare mean TNF-α concentration across treatments and exposure times.",
  "data": [
    {"smiles": "COc1ccc(C[C@@H](C)NC[C@H](O)c2cc(O)cc(O)c2)c2ccccc12", "note": "[(R,R′) MNF, (R,R′)-4′-methoxy-1-naphthylfenoterol]", "values": [
      {"measurement": "inhibition of LPS-induced production of TNF-α", "setting": "8 h timepoint after LPS", "value": "significant inhibition"},
      {"measurement": "inhibition of LPS-induced production of TNF-α", "setting": "10 h timepoint after LPS", "value": "significant inhibition"}
    ]}
  ]
}
